Measured values: patent publication US8476295B2, “Bridged bicyclic RHO kinase inhibitor compounds, composition and use” (Inspire, priority 2009, dated 2013)
Where two headings read alike, the source gives them in different places.

Columns and labels:
Rho kinase 2 = Rho kinase 2 (Homo sapiens (Human), UniProt O75116); assay: Rho Kinase Inhibition Assay (IMAP fluorescence polarization), Rho kinase 2; type: biochemical; details: isolated enzyme, 10 μM ATP, 60 minutes at room temperature
Rho kinase 1 = Rho kinase 1 (Homo sapiens (Human), UniProt Q13464); assay: biochemical
[1] = Rho kinase 1 Ki, isolated enzyme, 10 μM ATP, 60 minutes at room temperature

Sequence of Rho kinase 2 (O75116 11-552): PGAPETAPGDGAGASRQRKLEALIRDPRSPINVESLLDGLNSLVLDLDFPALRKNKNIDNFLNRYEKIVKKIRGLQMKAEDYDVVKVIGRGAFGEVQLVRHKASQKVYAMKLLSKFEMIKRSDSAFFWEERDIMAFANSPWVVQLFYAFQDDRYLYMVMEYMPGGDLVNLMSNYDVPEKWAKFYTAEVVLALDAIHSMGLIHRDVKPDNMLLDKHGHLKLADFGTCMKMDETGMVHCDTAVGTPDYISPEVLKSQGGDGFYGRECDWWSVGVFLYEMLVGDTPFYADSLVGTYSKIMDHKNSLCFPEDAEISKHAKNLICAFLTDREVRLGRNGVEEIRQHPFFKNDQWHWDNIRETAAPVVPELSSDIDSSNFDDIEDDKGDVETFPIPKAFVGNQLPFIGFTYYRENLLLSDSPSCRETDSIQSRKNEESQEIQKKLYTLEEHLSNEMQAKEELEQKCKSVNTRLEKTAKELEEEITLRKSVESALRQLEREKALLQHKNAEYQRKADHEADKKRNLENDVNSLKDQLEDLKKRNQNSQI
Sequence of Rho kinase 1 (Q13464 17-535): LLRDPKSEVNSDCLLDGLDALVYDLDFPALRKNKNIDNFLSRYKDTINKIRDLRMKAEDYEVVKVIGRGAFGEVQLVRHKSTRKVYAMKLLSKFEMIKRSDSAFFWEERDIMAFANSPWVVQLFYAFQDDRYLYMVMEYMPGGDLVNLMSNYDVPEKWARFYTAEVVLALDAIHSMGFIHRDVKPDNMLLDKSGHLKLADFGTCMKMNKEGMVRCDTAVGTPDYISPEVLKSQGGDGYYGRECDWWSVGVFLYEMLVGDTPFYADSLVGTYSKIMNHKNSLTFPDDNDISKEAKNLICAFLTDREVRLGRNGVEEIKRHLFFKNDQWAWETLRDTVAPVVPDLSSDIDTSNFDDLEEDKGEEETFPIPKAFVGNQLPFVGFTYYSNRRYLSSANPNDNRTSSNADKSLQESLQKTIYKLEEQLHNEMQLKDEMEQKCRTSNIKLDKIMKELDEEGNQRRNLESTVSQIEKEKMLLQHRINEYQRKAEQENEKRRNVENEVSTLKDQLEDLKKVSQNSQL

Compound	Ki (Rho kinase 2; read-out: Rho kinase 2 Ki) [nM]	Ki (Rho kinase 1) [nM]	Ki (Rho kinase 2; Rho kinase 2 Ki) [nM]	Ki (Rho kinase 1; [1]) [nM]
c1ccc(CN2C[C@@H]3CC[C@H]2[C@@H]3Nc2ccc3[nH]ncc3c2)cc1 (racemic) [Compound 3.1.01, N-((1SR,4SR,7RS)-2-benzyl-2-azabicyclo[2.2.1]heptan-7-yl)-1H-indazol-5-amine]	464	976		
c1ccc(CN2C3CCC2CC(Nc2ccc4[nH]ncc4c2)C3)cc1 (single isomer, unassigned) [Compound 1.1.01, N-((1RS,3rs,5SR)-8-benzyl-8-azabicyclo[3.2.1]octan-3-yl)-1H-indazol-5-amine]			29	72
c1ccc(CN2C3CCC2CC(Nc2ccc4[nH]ncc4c2)C3)cc1 (single isomer, unassigned) [Compound 2.1.01, N-((1RS,3sr,5SR)-8-benzyl-8-azabicyclo[3.2.1]octan-3-yl)-1H-indazol-5-amine]			220	806
Cc1ccc(CN2C3CCC2CC(Nc2ccc4[nH]ncc4c2)C3)cc1 (stereo not drawn) [Compound 1.1.02, N-((1RS,3rs,5SR)-8-(4-methylbenzyl)-8-azabicyclo[3.2.1]octan-3-yl)-1H-indazol-5-amine]			20	91
OCCOc1cccc(CN2C3CCC2CC(Nc2ccc4[nH]ncc4c2)C3)c1 (stereo not drawn) [Compound 1.1.03, 2-(3-(((1RS,3rs,5SR)-3-((1H-indazol-5-yl)amino)-8-azabicyclo[3.2.1]octan-8-yl)methyl)phenoxy)ethanol]			21	
Cc1ccc(CN2C3CCC2CC(Nc2ccc4[nH]ncc4c2)C3)cc1OCCO (stereo not drawn) [Compound 1.1.04, 2-(5-(((1RS,3rs,5SR)-3-((1H-indazol-5-yl)amino)-8-azabicyclo[3.2.1]octan-8-yl)methyl)-2-methylphenoxy)ethanol]			10	35
